≈ marks a conversion by molar mass, not a printed value. Where a SMILES comes first, the peptide text is derived from it.
Tests used:
[1] = test system: C498: E. coli, wild type strain; type: cell-based; settings: for MIC C498 (active/inactive): Table 2, class symbols; for MIC C498: wild type strain
Description: (§1) The bacterial strains used were E. coli C498, E. coli C500, Escherichia coli UB1005 and its antibiotic supersusceptible derivative DC2 (22); a clinical isolate of Staphylococcus epidermidis (C621); coryneform bacterial strain Corynebacterium xerosis (C875); and E. coli ATCC 25922, Staphylococcus aureus ATCC 25923, Enterococcus faecalis ATCC 29212, Bacillus subtilis ATCC 6633 and Pseudomonas aeruginosa ATCC 27853, all from American Type Culture Collection.
(§2) Peptide antibacterial activity was assessed by the method of R. Hancock et al. (Wu & Hancock (1999), J. Biol. Chem., v. 274, pp. 29-35). Test strains of bacteria from Mueller Hinton agar (MHA) plates were inoculated into 5 ml Mueller Hinton Broth (MHB) in tubes and grown overnight at 37° C. on a shaker (180 rpm). Serial dilutions of test peptides (at 10 times the required test concentrations) were made in 0.01% acetic acid, 0.2% BSA, in polypropylene or coated glass tubes as follows: the test peptide was (a) dissolved in distilled water at 20 times the required maximum concentration (enough final volume for all tests to be performed on a given day); (b) diluted into an equal volume of 0.02% acetic acid, 0.4% BSA to give 10 times the required maximum concentration; (c) serial doubling dilutions were performed in 0.01% acetic acid, 0.2% BSA to provide serial dilutions of peptides at 10 times the required test concentrations, e.g., 640, 320, 160, . . . 2.5 μg/ml. (No deleterious effects of long-term storage of peptides in these media have been detected). Overnight bacterial cultures were diluted in MHB to give 2−7×10^5 colony forming units/ml. Bacterial suspension (100 μl) was dispensed in each well; controls without bacteria were maintained in parallel. To each well was added 11 μl of 10× test peptide and plates were incubated at 37° C. for 18-24 hours, and checked again at 40-48 hours. Plates were read visually and at 600 nm in a microplate reader (Molecular Devices).
(§3) were synthesized. The antibacterial activity of these peptides was determined against both Gram-positive bacteria ([…], Corynebacterium xerosis) and Gram-negative bacteria (various strains of E. coli). The results are shown in Table 2, along with the average hydrophobicity of each peptide, calculated as described herein.

[2] = test system: C500: E. coli, antibiotic strain; type: cell-based; settings: for MIC C500 (active/inactive): Table 2, class symbols; for MIC C500: antibiotic strain
Description: as §1, §2, §3

[3] = test system: Corynebacterium xerosis (C875); type: cell-based; settings: for MIC C875 (active/inactive): Table 2, class symbols
Description: as §1, §2, §3
(§4) A further number of the peptides of the invention were tested for antimicrobial activity against a range of Gram-positive and Gram-negative bacteria by the assay described immediately before Example 1.

[4] = test system: Staphylococcus epidermidis (C621); type: cell-based; settings: for MIC C621 (active/inactive): Table 2, class symbols
Description: as §1, §2, §3, §4

E. coli DC2 = assay: Assay of antibacterial activity (MIC), E. coli DC2; type: cell-based, Escherichia coli; settings: Table 3; Gram-negative
Description: as §1, §2, §4

E. coli UB1005 = type: cell-based, Escherichia coli; settings: UB1005
Description: as §1, §2, §4

[5] = Hydrophobicity (hydropathy) from reverse-phase HPLC retention scale; type: physicochemical; design: key to Average Hydrophobicity of Core Sequence / Mean Core segment Hydrophobicity: arithmetic average of Table 1 hydropathy values of constituent residues; key to Hydropathy: hydropathy scale from HPLC retention times of model peptides (Table 1); settings: for Mean residue hydropathy of X-residue peptide / Hydropathy: Table 1; for Hydropathy: of the X-residue, from HPLC retention of KKAAAXAAAAAXAAWAAXAAAKKKK-amide peptides; for Average Hydrophobicity of Core Sequence: Table 2, calculated from Table 1 hydropathy values; for Mean Core segment Hydrophobicity: Table 3
Description: The “hydrophobicity value” of an amino acid residue means the hydrophobicity value of that residue as shown in Table 1 or as calculated by the method described herein.
The “hydrophobicity value” of an amino acid sequence or peptide means the arithmetic average of the individual hydrophobicity values of the constituent amino acid residues of the sequence.
Various hydrophobicity scales for proteins and amino acids have been described in the literature but the inventors have established the hydrophobicity scale of Table 1 based on the retention times on HPLC of a series of hydrophobic model peptides, as described in Liu and Deber (1998), Biopolymers (Peptide Science), v. 47, pp. 41-62).
The hydrophobicity value shown for each amino acid in Table 1 as “hydropathy” may be used as the hydrophobicity value for that amino acid in any peptide whose hydrophobicity value has to be calculated. The “average hydrophobicity” of a peptide containing amino acids shown in Table 1 is calculated by determining the arithmetic average of the Table 1 “hydropathy” values for the constituent amino acids of the sequence.
Peptides in accordance with the invention may also include other amino acids. For an amino acid not included in Table 1, the hydrophobicity value may be determined by the same method as described herein for obtaining the values of Table 1. For example, a peptide such as KKAAAXAAAAAXAAXAAXAAAKKKK-amide (Sequence ID No: 1) may be synthesized, where X is the amino acid whose hydrophobicity value is to be determined, and the retention time of the peptide on HPLC is determined, as described in the Examples. Similar peptides where X is Lys or Phe are also prepared and their HPLC retention times determined. The retention time, Rx, is converted to the hydropathy value H for the selected amino acid using the equation
H=(10×ΔtRx-Lys/ΔtRPhe-Lys)−5.00
where ΔtRx-Lys=retention time difference in minutes between Rx and the retention time of the most hydrophilic peptide tested (X=Lys) and where ΔtRPhe-Lys=retention time difference in minutes between the most hydrophobic peptide tested (X=Phe) and the most hydrophilic (X=Lys).
The retention time of each peptide was determined on a C4 reversed-phase column (4.6×250 mm, 300 A pore size, 10 μ particle size). Equal amounts of each peptide were injected into the column and eluted at a flow rate of 1 mL/min, utilizing a linear AB gradient (2% B/min), where buffer A was 0.1% TFA/ddH2O, and buffer B was 0.1% TFA/acetonitrile. The retention time of each peptide reported here was the average of triplicate measurements.

## CSCC[C@H](NC(=O)[C@H](C)NC(=O)[C@H](C)NC(=O)[C@H](C)NC(=O)[C@H](CCCCN)NC(=O)[C@@H](N)CCCCN)C(=O)N[C@@H](C)C(=O)N[C@@H](C)C(=O)N[C@@H](C)C(=O)N[C@@H](C)C(=O)N[C@@H](C)C(=O)N[C@@H](CCSC)C(=O)N[C@@H](C)C(=O)N[C@@H](C)C(=O)N[C@@H](Cc1c[nH]c2ccccc12)C(=O)N[C@@H](C)C(=O)N[C@@H](C)C(=O)N[C@@H](CCSC)C(=O)N[C@@H](C)C(=O)N[C@@H](C)C(=O)N[C@@H](C)C(=O)N[C@@H](CCCCN)C(=O)N[C@@H](CCCCN)C(=O)N[C@@H](CCCCN)C(=O)N[C@@H](CCCCN)C(N)=O [[M25]] (H-KKAAAMAAAAAMAAWAAMAAAKKKK-NH2; N-terminus assumed)
[1]
  MIC C498 (active/inactive): +
[2]
  MIC C500 (active/inactive): +
[3]
  MIC C. xerosis C875: 0.5 µM (≈ 1.22 µg/mL)
  MIC C875 (active/inactive): +
[4]
  MIC S. epidermidis C621: 16 µM (≈ 38.9 µg/mL)
  MIC C621 (active/inactive): +
E. coli DC2
  MIC E. coli DC2: 32 µM (≈ 77.8 µg/mL)
E. coli UB1005
  MIC E. coli UB1005: >32 µM
[5]
  Mean residue hydropathy of X-residue peptide: 0.90
  Hydropathy: 3.23
  Average Hydrophobicity of Core Sequence: 0.89
  Mean Core segment Hydrophobicity: 0.90

## CC(C)C[C@H](NC(=O)[C@H](C)NC(=O)[C@H](C)NC(=O)[C@H](C)NC(=O)[C@H](CCCCN)NC(=O)[C@@H](N)CCCCN)C(=O)N[C@@H](C)C(=O)N[C@@H](C)C(=O)N[C@@H](C)C(=O)N[C@@H](C)C(=O)N[C@@H](C)C(=O)N[C@@H](CC(C)C)C(=O)N[C@@H](C)C(=O)N[C@@H](C)C(=O)N[C@@H](Cc1c[nH]c2ccccc12)C(=O)N[C@@H](C)C(=O)N[C@@H](C)C(=O)N[C@@H](CC(C)C)C(=O)N[C@@H](C)C(=O)N[C@@H](C)C(=O)N[C@@H](C)C(=O)N[C@@H](CCCCN)C(=O)N[C@@H](CCCCN)C(=O)N[C@@H](CCCCN)C(=O)N[C@@H](CCCCN)C(N)=O [Peptide L25] (H-KKAAALAAAAALAAWAALAAAKKKK-NH2; N-terminus assumed)
[1]
  MIC C498: 6 µM (≈ 14.3 µg/mL)
[2]
  MIC C500: 6 µM (≈ 14.3 µg/mL)
[3]
  MIC C875: 0.2 µM (≈ 0.476 µg/mL)
  MIC C. xerosis C875: <0.25 µM
[4]
  MIC C621: 1.5 µM (≈ 3.57 µg/mL)
  MIC S. epidermidis C621: 2 µM (≈ 4.76 µg/mL)
E. coli DC2
  MIC E. coli DC2: 16 µM (≈ 38 µg/mL)
E. coli UB1005
  MIC E. coli UB1005: 32 µM (≈ 76.1 µg/mL)
[5]
  Mean residue hydropathy of X-residue peptide: 1.14
  Hydropathy: 4.76
  Average Hydrophobicity of Core Sequence: 1.14
  Mean Core segment Hydrophobicity: 1.14

## C[C@H](NC(=O)[C@H](C)NC(=O)[C@H](C)NC(=O)[C@H](Cc1ccc(O)cc1)NC(=O)[C@H](C)NC(=O)[C@H](C)NC(=O)[C@H](C)NC(=O)[C@H](CCCCN)NC(=O)[C@@H](N)CCCCN)C(=O)N[C@@H](C)C(=O)N[C@@H](C)C(=O)N[C@@H](Cc1ccc(O)cc1)C(=O)N[C@@H](C)C(=O)N[C@@H](C)C(=O)N[C@@H](Cc1c[nH]c2ccccc12)C(=O)N[C@@H](C)C(=O)N[C@@H](C)C(=O)N[C@@H](Cc1ccc(O)cc1)C(=O)N[C@@H](C)C(=O)N[C@@H](C)C(=O)N[C@@H](C)C(=O)N[C@@H](CCCCN)C(=O)N[C@@H](CCCCN)C(=O)N[C@@H](CCCCN)C(=O)N[C@@H](CCCCN)C(N)=O [Peptide Y25] (H-KKAAAYAAAAAYAAWAAYAAAKKKK-NH2; N-terminus assumed)
[1]
  MIC C498: 11 µM (≈ 27.8 µg/mL)
[2]
  MIC C500: 5 µM (≈ 12.6 µg/mL)
[3]
  MIC C875: 0.2 µM (≈ 0.506 µg/mL)
  MIC C. xerosis C875: <0.25 µM
[4]
  MIC C621: 3 µM (≈ 7.58 µg/mL)
  MIC S. epidermidis C621: 8 µM (≈ 20.2 µg/mL)
E. coli DC2
  MIC E. coli DC2: 16 µM (≈ 40.4 µg/mL)
E. coli UB1005
  MIC E. coli UB1005: 32 µM (≈ 80.9 µg/mL)
[5]
  Mean residue hydropathy of X-residue peptide: 0.71
  Hydropathy: 2.00
  Average Hydrophobicity of Core Sequence: 0.71
  Mean Core segment Hydrophobicity: 0.71

## CC(C)C[C@H](NC(=O)[C@H](C)NC(=O)[C@H](C)NC(=O)[C@H](C)NC(=O)[C@H](CCCCN)NC(=O)[C@@H](N)CCCCN)C(=O)N[C@@H](C)C(=O)N[C@@H](C)C(=O)N[C@@H](C)C(=O)N[C@@H](C)C(=O)N[C@@H](C)C(=O)N[C@@H](CS)C(=O)N[C@@H](C)C(=O)N[C@@H](C)C(=O)N[C@@H](Cc1c[nH]c2ccccc12)C(=O)N[C@@H](C)C(=O)N[C@@H](C)C(=O)N[C@@H](CC(C)C)C(=O)N[C@@H](C)C(=O)N[C@@H](C)C(=O)N[C@@H](C)C(=O)N[C@@H](CCCCN)C(=O)N[C@@H](CCCCN)C(=O)N[C@@H](CCCCN)C(=O)N[C@@H](CCCCN)C(N)=O [[C25]] (H-KKAAALAAAAACAAWAALAAAKKKK-NH2; N-terminus assumed)
[1]
  MIC C498 (active/inactive): +
[2]
  MIC C500 (active/inactive): +
[3]
  MIC C. xerosis C875: 1 µM (≈ 2.37 µg/mL)
  MIC C875 (active/inactive): +
[4]
  MIC S. epidermidis C621: >32 µM
  MIC C621 (active/inactive): +
E. coli DC2
  MIC E. coli DC2: 8 µM (≈ 18.9 µg/mL)
E. coli UB1005
  MIC E. coli UB1005: 16 µM (≈ 37.9 µg/mL)
[5]
  Mean residue hydropathy of X-residue peptide: 0.78
  Hydropathy: 2.49
  Average Hydrophobicity of Core Sequence: 1.02
  Mean Core segment Hydrophobicity: 1.02
